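Tested at 5 concentrations; 48 h exposure; 96-well plates; endpoints linearly interpolated, else capped at highest concentration. GI50: concentration for 50% inhibition of growth. TGI is the concentration that stops growth completely.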

Test systems include RPMI-8226 leukemia; CAKI-1 renal; NCI-H460 lung; MOLT-4 leukemia; UO-31 renal; SF-268 CNS; NCI-H226 lung; COLO 205 colon; EKVX NSCLC; SK-MEL-28 melanoma.
What all share (test): DTP human tumour cell line panel, 48 h

On to `c1ccc(Cn2cnc3ccc(-c4nc(-c5ccc6c(c5)ncn6C5CCCCC5)cn5ccnc45)cc32)cc1`, for which the GI50 is 1.15 µM in the experiment on RPMI-8226 leukemia; 2.45 µM in the experiment with CAKI-1 renal; 2.3 µM in the experiment with NCI-H460 lung; 1.67 µM with MOLT-4 leukemia; 1.72 µM in the experiment on UO-31 renal; 2.48 µM in the experiment on SF-268 CNS. Further, the TGI in the experiment on RPMI-8226 leukemia is 4.5 µM; in the experiment with CAKI-1 renal, over 100 µM; with NCI-H460 lung, 5.66 µM; with MOLT-4 leukemia, over 100 µM; in the experiment on UO-31 renal, 4.55 µM; in the experiment with SF-268 CNS it was over 100 µM.
Turning to `CC1(Cc2ccccc2)NC(=S)NC1=O` (stereo unspecified), the TGI with NCI-H226 lung, in the experiment on COLO 205 colon, with CAKI-1 renal, with EKVX NSCLC, with NCI-H460 lung and in the experiment with UO-31 renal was over 100 µM throughout. Further, the TGI in the experiment on SF-268 CNS and in the experiment on SK-MEL-28 melanoma was over 100 µM in each case.
On to `C=CCC1[C@@H](C(C)(C)C(C(C)=O)C(=O)C(=O)OC)OC(C(C)(C)C)N1C(=O)OC` (stereo partly specified), for which the TGI is over 100 µM in the experiment with NCI-H226 lung; over 100 µM in the experiment with COLO 205 colon; over 100 µM in the experiment with EKVX NSCLC; over 100 µM in the experiment on NCI-H460 lung; 70.9 µM in the experiment with MOLT-4 leukemia; over 100 µM in the experiment with UO-31 renal. Besides, the TGI in the experiment on SF-268 CNS and with SK-MEL-28 melanoma was over 100 µM each time.
Regarding `COc1cc2cnc3c4ccccc4ccc3c2cc1OC`, the TGI in the experiment on RPMI-8226 leukemia, with COLO 205 colon, in the experiment on CAKI-1 renal, in the experiment with EKVX NSCLC, in the experiment on NCI-H460 lung and with MOLT-4 leukemia was over 100 µM throughout. Moreover, the TGI in the experiment on UO-31 renal, in the experiment with SF-268 CNS and in the experiment with SK-MEL-28 melanoma was over 100 µM in each case.
Turning to `Cc1cn(C2OC(C)(CO)C(O)C2O)c(=O)[nH]c1=O` (stereo unspecified), the TGI in the experiment on RPMI-8226 leukemia, in the experiment on COLO 205 colon, in the experiment with CAKI-1 renal, with NCI-H460 lung, in the experiment on MOLT-4 leukemia and in the experiment with UO-31 renal was over 100 µM throughout. Further, the concentration for total growth inhibition (TGI) in the experiment on SF-268 CNS and in the experiment with SK-MEL-28 melanoma was over 100 µM throughout.
In the case of `c1ccc2nc3c(cc4ccccn43)nc2c1`, the GI50 with RPMI-8226 leukemia is over 100 µM; in the experiment on COLO 205 colon it was 64 µM; with CAKI-1 renal, 55.2 µM; in the experiment on EKVX NSCLC, 18.9 µM; in the experiment on NCI-H460 lung it was over 100 µM; with MOLT-4 leukemia, 53.1 µM. The results for the GI50 with UO-31 renal, in the experiment on SF-268 CNS and with SK-MEL-28 melanoma were 6.25 µM, over 100 µM and over 100 µM, respectively. Moreover, the TGI in the experiment on RPMI-8226 leukemia, in the experiment with COLO 205 colon, in the experiment on CAKI-1 renal, with EKVX NSCLC, in the experiment on NCI-H460 lung and with MOLT-4 leukemia was over 100 µM each time. Also, the TGI in the experiment with UO-31 renal, in the experiment with SF-268 CNS and in the experiment with SK-MEL-28 melanoma was over 100 µM each time.
For `OC(c1ccc(Br)cc1)(c1cccs1)C1CC1` (stereo unspecified), the TGI with RPMI-8226 leukemia is 54.7 µM; in the experiment with COLO 205 colon, 36.6 µM; in the experiment with CAKI-1 renal, 69.6 µM; with EKVX NSCLC, over 100 µM; with NCI-H460 lung, 57.8 µM; in the experiment on MOLT-4 leukemia, 67 µM. The TGI in the experiment on UO-31 renal came out at 48.1 µM; in the experiment on SF-268 CNS, 45.4 µM; in the experiment on SK-MEL-28 melanoma it was 51.3 µM.
Take `CCN(CC)CC(=O)N1CCc2c([nH]c3ccccc23)C1c1cccnc1` (stereo unspecified): the TGI in the experiment on RPMI-8226 leukemia, in the experiment with CAKI-1 renal, in the experiment on EKVX NSCLC, in the experiment with NCI-H460 lung, in the experiment on MOLT-4 leukemia and in the experiment on UO-31 renal was over 100 µM throughout. The TGI with SF-268 CNS and in the experiment with SK-MEL-28 melanoma was over 100 µM in each case.
On to `CSc1c(C)c(C)nn1-c1ccccc1`, for which the TGI in the experiment on RPMI-8226 leukemia, with COLO 205 colon, with CAKI-1 renal, in the experiment on EKVX NSCLC, in the experiment on NCI-H460 lung and in the experiment on MOLT-4 leukemia was over 100 µM in each case. For the same compound, the concentration for total growth inhibition (TGI) with UO-31 renal, in the experiment with SF-268 CNS and with SK-MEL-28 melanoma was over 100 µM throughout.
`Cn1cc(-c2csc(-c3cn(C)c4ccccc34)n2)c2cnccc21`: the GI50 in the experiment on RPMI-8226 leukemia is 1.76 µM; in the experiment with CAKI-1 renal it was 2.58 µM; in the experiment with EKVX NSCLC, 1.56 µM; in the experiment with NCI-H460 lung, 1.79 µM; in the experiment with UO-31 renal, 1.47 µM; in the experiment on SF-268 CNS, 1.92 µM. In the experiment with SK-MEL-28 melanoma, the GI50 is 1.77 µM. In addition, the TGI is 4.06 µM in the experiment on RPMI-8226 leukemia; 9.12 µM in the experiment with CAKI-1 renal; 3.39 µM with EKVX NSCLC; 3.49 µM with NCI-H460 lung; 3.16 µM in the experiment with UO-31 renal; 3.92 µM in the experiment with SF-268 CNS. In the experiment on SK-MEL-28 melanoma, this compound returned a TGI of 3.21 µM.
As for `C[C@H]1[C@H](C)CC[C@]2(C(=O)NCCNCCN)CC[C@]3(C)C(=CC[C@@H]4[C@@]5(C)CCC(=O)C(C)(C)[C@@H]5CC[C@]43C)[C@H]12`, the GI50 in the experiment on NCI-H226 lung was 14.8 µM; in the experiment with CAKI-1 renal, 1.75 µM; with EKVX NSCLC, 1.58 µM; in the experiment with NCI-H460 lung it was 1.77 µM; with MOLT-4 leukemia, 2.2 µM; in the experiment with UO-31 renal, 1.53 µM. In addition, the GI50 in the experiment on SK-MEL-28 melanoma was 1.65 µM. In addition, the TGI with NCI-H226 lung was found to be 45.5 µM; with CAKI-1 renal it was 4.01 µM; with EKVX NSCLC, 3.02 µM; with NCI-H460 lung it was 3.28 µM; with MOLT-4 leukemia it was 4.73 µM; in the experiment with UO-31 renal it was 2.86 µM. Besides, in the experiment with SK-MEL-28 melanoma, the TGI came to 3.02 µM.
Consider `CCN(CC)CCNC(=O)c1cn2ncnc(Oc3ccc(NC(=O)Nc4ccc(Cl)c(C(F)(F)F)c4)c(F)c3)c2c1C`, for which the GI50 in the experiment on NCI-H226 lung is 2.05 µM; with COLO 205 colon, 1.44 µM; in the experiment on CAKI-1 renal, 1.69 µM; in the experiment with EKVX NSCLC, 1.92 µM; in the experiment on NCI-H460 lung, 1.99 µM; in the experiment with UO-31 renal it was 2.1 µM. Besides, the GI50 with SF-268 CNS was 1.92 µM; with SK-MEL-28 melanoma, 1.47 µM. Further, the TGI with NCI-H226 lung was determined as 4.15 µM; in the experiment on COLO 205 colon it was 3.16 µM; in the experiment on CAKI-1 renal, 3.13 µM; in the experiment on EKVX NSCLC, 3.34 µM; with NCI-H460 lung it was 3.87 µM; with UO-31 renal it was 3.63 µM. In addition, the results for the TGI with SF-268 CNS and with SK-MEL-28 melanoma were 3.74 µM and 2.79 µM, respectively.
With `CC(=O)N(C(C)=O)C1=C2c3ccccc3N(S(=O)(=O)c3ccccc3)C2n2c(=O)n(-c3ccccc3)c(=O)n2C1` (stereo unspecified), the TGI with RPMI-8226 leukemia is 40.2 µM; in the experiment with COLO 205 colon, 80.2 µM; in the experiment on CAKI-1 renal it was over 100 µM; with EKVX NSCLC it was 61.9 µM; in the experiment on NCI-H460 lung it was 42.3 µM; with UO-31 renal it was over 100 µM. Further, the TGI is over 100 µM in the experiment with SF-268 CNS and 58.2 µM in the experiment with SK-MEL-28 melanoma.
Regarding `COC(=O)/C(C#N)=C1\CCC(C(=O)OC)N1C` (stereo unspecified), the TGI in the experiment with RPMI-8226 leukemia, in the experiment on COLO 205 colon, in the experiment on CAKI-1 renal, in the experiment on EKVX NSCLC, with NCI-H460 lung and in the experiment on MOLT-4 leukemia was over 100 µM in each case. In addition, the TGI with UO-31 renal, in the experiment with SF-268 CNS and in the experiment with SK-MEL-28 melanoma was over 100 µM in each case.
For `CCCCCCCCCCCCCC(=O)OCC1OC(=O)CC1O` (stereo unspecified), the concentration for total growth inhibition (TGI) in the experiment with RPMI-8226 leukemia, in the experiment on COLO 205 colon, in the experiment with CAKI-1 renal, in the experiment with EKVX NSCLC, with NCI-H460 lung and in the experiment with MOLT-4 leukemia was over 100 µM throughout. Moreover, the TGI in the experiment with UO-31 renal was 81.6 µM; in the experiment on SF-268 CNS, over 100 µM.
As for `CC1=C(C(=O)Nc2ccccc2C)C(/C=C/c2ccccc2)C(C(=O)Nc2ccccc2C)=C(C)N1`, the TGI with NCI-H226 lung, in the experiment on COLO 205 colon, in the experiment on CAKI-1 renal, in the experiment on EKVX NSCLC, with NCI-H460 lung and in the experiment on UO-31 renal was over 100 µM throughout. Moreover, the TGI in the experiment with SF-268 CNS and with SK-MEL-28 melanoma was over 100 µM each time.
As for `O=c1c2c3c(sc2n2c(-c4cc(-c5ccccc5)nn4-c4ccccc4)nnc2n1Cc1ccccc1)CCCC3`, the GI50 in the experiment on NCI-H226 lung, in the experiment with COLO 205 colon, in the experiment with CAKI-1 renal, in the experiment on EKVX NSCLC, in the experiment with NCI-H460 lung and with UO-31 renal was over 100 µM each time. For the same compound, the GI50 in the experiment on SF-268 CNS and in the experiment with SK-MEL-28 melanoma was over 100 µM in each case. The TGI in the experiment on NCI-H226 lung, in the experiment with COLO 205 colon, in the experiment on CAKI-1 renal, in the experiment on EKVX NSCLC, with NCI-H460 lung and with UO-31 renal was over 100 µM throughout. Also, the concentration for total growth inhibition (TGI) in the experiment on SF-268 CNS and in the experiment on SK-MEL-28 melanoma was over 100 µM throughout.
As to `CCOC(=O)c1ccc(N[C@@H]2c3cc4c(cc3C(C3=CC(=O)C(=O)C(OC)=C3)[C@H]3C(=O)OCC32)OCO4)cc1` (stereo partly specified), the total growth inhibition concentration (TGI) with RPMI-8226 leukemia was 66.8 µM; in the experiment on COLO 205 colon it was 28.3 µM; with CAKI-1 renal it was 11.5 µM; with EKVX NSCLC it was 26.3 µM; with NCI-H460 lung it was 5.84 µM; in the experiment on MOLT-4 leukemia, over 37.7 µM. The TGI with UO-31 renal worked out at 9.43 µM; in the experiment with SF-268 CNS, 10.4 µM; in the experiment with SK-MEL-28 melanoma, 40.5 µM.

The GI50 is the concentration at which growth is held to half of that of the control. Broadly, the TGI is the concentration giving total growth inhibition.

Values taken from PubChem BioAssay (NCI).
